Among the data in patent US11306071B2, “Heterocyclic compounds as adenosine antagonists” (Nuvation Bio Inc., priority 2019, dated 2022) are IC50 and inhibition values, retold here.

pIC50: −log10 of the molar value.

Assay [1] addresses adenosine A2a (human) membrane (Homo sapiens (Human), UniProt P29274). The experiment in a line: A2A adenosine receptor radioligand binding assay ([3H] CGS-21680). To be noted: radioligand [3H] CGS-21680 6 nM. As for the experimental part:
A second A2A adenosine receptor radioligand binding assay protocol was used. The protocol used adenosine A2a (human) membrane (PerkinElmer RBHA2AM400UA) at a concentration of 5 μg/well/100 μl and the radioligand [3H] CGS-21680 (Cat No. PerkinElmer-NET1021250UC) at a final concentration of 6 nM. Testing compounds were diluted with DMSO to make 8-point 4-fold serial dilution, starting at 0.2 mM. CGS-15943 was the reference compound. 1 μl of compounds/high control/low control was transferred to the assay plate according to a plate map, followed by 100 μl of membrane stocks and 100 μl of radioligand, in assay buffer (50 mM Tris-HCl, 10 mM MgCl2, 1 mM EDTA, pH 7.4). The plate was sealed and incubated at RT for 2 hours. Unifilter-96 GF/C filter plates (Perkin Elmer Cat #6005174) were soaked with 50 μl of 0.3% PEI per well for at least 0.5 hour at room temperature. When the binding assays were completed, the reaction mixtures were filtered through GF/C plates using Perkin Elmer Filtermate Harvester, and each plate washed 4 times with cold wash buffer (50 mM Tris-HCl, 154 mM NaCl, pH 7.4). The filter plates were dried for 1 hour at 50 degrees. After drying, the bottom of the filter plate wells was sealed, 50 μl of Perkin Elmer Microscint 20 cocktail was added, and the top of the filter plate was sealed. ^3H trapped on the filter was counted using Perkin Elmer MicroBeta2 Reader. The data were analyzed with GraphPad Prism 5 to obtain binding IC50 values. The “Inhibition [% Control]” was calculated using the equation: % Inh=(1-Background subtracted Assay value/Background subtracted HC value)*100, where HC is high control.

Assay [2] addresses adenosine A1 (human) membrane (Homo sapiens (Human), UniProt P30542). The experiment in a line: A1 adenosine receptor radioligand binding assay ([3H] DPCPX). To be noted: 200 nM compound; radioligand [3H] DPCPX 1 nM. How it is done: A second A1 adenosine receptor radioligand binding assay protocol was used. The protocol used adenosine A1 (human) membrane (PerkinElmer ES-010-M400UA) at a concentration of 2.5 μg/well/100 μl and the radioligand [3H] DPCPX (Cat No. PerkinElmer-NET974250UC) at a final concentration of 1 nM. Testing compounds were tested at a final concentration of 200 nM. CGS-15943, the reference compound, was tested in an 8-point 4-fold serial dilution, starting at a top concentration of 1 μM. 1 μl of compounds/high control/low control was transferred to the assay plate according to a plate map, followed by 100 μl of membrane stocks and 100 μl of radioligand, in assay buffer (25 mM HEPES, 5 mM MgCl2, 1 mM CaCl2, 100 mM NaCl, pH 7.4). The plate was sealed and incubated at RT for 1 hour. Unifilter-96 GF/C filter plates (Perkin Elmer Cat #6005174) were soaked with 50 μl of 0.3% PEI per well for at least 0.5 hour at room temperature. When the binding assays were completed, the reaction mixtures were filtered through GF/C plates using Perkin Elmer Filtermate Harvester, and each plate washed 4 times with cold wash buffer (25 mM HEPES, 5 mM MgCl2, 1 mM CaCl2, 100 mM NaCl, pH 7.4). The filter plates were dried for 1 hour at 50 degrees. After drying, the bottom of the filter plate wells was sealed, 50 μl of Perkin Elmer Microscint 20 cocktail was added, and the top of the filter plate was sealed. ^3H trapped on the filter was counted using Perkin Elmer MicroBeta2 Reader. The data were analyzed with GraphPad Prism 5 to obtain binding IC50 values for the reference compound. The “Inhibition [% Control]” was calculated using the equation: % Inh=(1-Background subtracted Assay value/Background subtracted HC value)*100, where HC is high control.

The target of assay [3] is HEK-293 cells expressing human recombinant adenosine A1 receptor (Homo sapiens (Human), UniProt P30542). The assay is described as follows: cAMP assay (Assay 2), A1 receptor. Type of assay: cell-based. As for the experimental part: (§1) The functional activity of compounds was tested using Assay 2, below, to detect the presence of cAMP. Assay 1 is an alternative assay for this purpose. Activation of G-protein coupled receptors (such as A2A) results in activation of adenylyl cyclase which converts ATP into cAMP which is used as a downstream signaling molecule. Therefore, molecules which act as GPCR (or specifically A2A receptor) antagonists cause a decrease in intracellular cAMP concentration.
(§2) Assay 2 (Table B2): This assay used HEK-293 cells expressing human recombinant adenosine A2A receptor (or, alternatively, A1 receptor) that were grown prior to the test in media without antibiotic. 100 nL of test articles at 100x of final concentration were transferred to assay plate by Echo. Cells were washed twice with 5 mL of PBS and 10 μL of cells were mixed with 5 mL PBS. After aspirating the PBS and adding 1.5 mL versine, cells were incubated at 37° C. for 2-5 min. After centrifugation, 4 mL of medium was added and adjusted cell density to 5,000 cells/well with Stimulation Buffer. 10 μL of cells were aliquoted to the assay plate, centrifuged at 1000 rpm for 1 minute, and incubated for 60 minutes at room temperature. 5 μL 4× Eu-cAMP tracer solution and 5 μL 4× Ulight™-anti-cAMP solution were added to assay plate, followed by centrifugation and 60-minute incubation at room temperature. Plates were read on EnVision.

In assay [4] the target is HEK-293 cells expressing human recombinant adenosine A2A receptor (Homo sapiens (Human), UniProt P29274). The experiment in a line: cAMP assay (Assay 2), A2A receptor. Type of assay: cell-based. How it is done:
as §1, §2

Sequence of adenosine A1 (human) membrane (P30542 whole entry): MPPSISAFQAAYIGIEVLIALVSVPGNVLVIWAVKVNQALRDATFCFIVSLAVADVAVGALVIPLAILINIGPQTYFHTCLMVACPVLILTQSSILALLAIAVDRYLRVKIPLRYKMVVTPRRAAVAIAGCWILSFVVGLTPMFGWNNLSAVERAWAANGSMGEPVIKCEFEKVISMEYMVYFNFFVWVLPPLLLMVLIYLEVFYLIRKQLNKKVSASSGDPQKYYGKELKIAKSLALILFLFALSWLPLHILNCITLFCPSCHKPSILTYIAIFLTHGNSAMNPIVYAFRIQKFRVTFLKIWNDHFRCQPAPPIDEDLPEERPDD
Sequence of HEK-293 cells expressing human recombinant adenosine A1 receptor (P30542 whole entry): as above
Sequence of HEK-293 cells expressing human recombinant adenosine A2A receptor (P29274 whole entry): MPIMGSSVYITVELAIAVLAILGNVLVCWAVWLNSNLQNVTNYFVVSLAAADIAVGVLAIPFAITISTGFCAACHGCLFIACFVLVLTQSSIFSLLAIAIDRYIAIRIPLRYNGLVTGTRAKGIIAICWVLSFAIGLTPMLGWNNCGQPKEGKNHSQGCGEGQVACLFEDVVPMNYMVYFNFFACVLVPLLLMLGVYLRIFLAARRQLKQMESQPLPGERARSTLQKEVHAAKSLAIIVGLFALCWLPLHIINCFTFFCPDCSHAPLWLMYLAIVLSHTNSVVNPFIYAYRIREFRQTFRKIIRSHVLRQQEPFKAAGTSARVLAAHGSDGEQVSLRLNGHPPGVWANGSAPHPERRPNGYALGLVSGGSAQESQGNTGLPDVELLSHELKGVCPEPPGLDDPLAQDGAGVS
Sequence of adenosine A2a (human) membrane (P29274 whole entry): as above

As for `N#Cc1cccc(-c2nc(N)cnc2-c2cc(Cl)c3ncccc3c2)c1F` [2-10, 3-(6-amino-3-(8-chloroquinolin-6-yl)pyrazin-2-yl)-2-fluorobenzonitrile], the pIC50 in assay [1] was 8.51; in assay [3], 7.57; in assay [4] it was 7.41. This compound displayed an inhibition at 0.2 µM in assay [2] of 79%.

Take `N#Cc1cccc(-c2nc(N)cnc2-c2cc(Cl)c3ncccc3c2)c1` [Compound No. 2-6, 3-(6-amino-3-(8-chloroquinolin-6-yl)pyrazin-2-yl)benzonitrile]: the figures for the pIC50 in assay [1], in assay [3] and in assay [4] were 8.43, 8.30 and 7.36, respectively. This compound had an inhibition at 0.2 µM in assay [2] of 90%.

`N#Cc1cccc(-c2nc(N)cnc2-c2cc(Cl)c3[nH]ncc3c2)c1` [Compound No. 2-7, 3-(6-amino-3-(7-chloro-1H-indazol-5-yl)pyrazin-2-yl)benzonitrile]: in assay [2], the inhibition at 0.2 µM was found to be 81%. Also, the negative-log IC50 (pIC50) in assay [4] is 6.89.

With `N#Cc1cc(-c2nc(N)cnc2-c2cc(Cl)c3ncccc3c2)ccc1F` [Compound No. 2-13, 5-(6-amino-3-(8-chloroquinolin-6-yl)pyrazin-2-yl)-2-fluorobenzonitrile], the inhibition at 0.2 µM in assay [2] was determined as 54%. For the same compound, in assay [4], the pIC50 was 6.28.

For the compound `C[C@@H](NC(=O)c1nc(-c2cc(Cl)c3ncccc3c2)c(-c2ccn(C)n2)nc1N)c1ccccn1` [Compound No. 100, (R)-3-amino-6-(8-chloroquinolin-6-yl)-5-(1-methyl-1H-pyrazol-3-yl)-N-(1-(pyridin-2-yl)ethyl)pyrazine-2-carboxamide], the figures for the pIC50 in assay [1], in assay [3] and in assay [4] were 8.80, 7.66 and 7.55, respectively. This compound yielded an inhibition at 0.2 µM in assay [2] of 70%.

For `Nc1nc(-c2ccc(F)cc2)c(-c2cc(Cl)c3ncccc3c2)nc1C(=O)NCCC1CCOCC1` [Compound No. 101, 3-amino-6-(8-chloroquinolin-6-yl)-5-(4-fluorophenyl)-N-(2-(tetrahydro-2H-pyran-4-yl)ethyl)pyrazine-2-carboxamide], 0.2 µM produced 66% inhibition in assay [2]. Also, the pIC50 in assay [4] is 6.62.

`CC(NC(=O)c1nc(-c2cc(Cl)c3ncccc3c2)c(-c2ccc(F)cc2)nc1N)c1cccc(C#N)n1` (stereo not shown) [Compound No. 102, 3-amino-6-(8-chloroquinolin-6-yl)-N-(1-(6-cyanopyridin-2-yl)ethyl)-5-(4-fluorophenyl)pyrazine-2-carboxamide]: the figures for the pIC50 in assay [1], in assay [3] and in assay [4] were 8.72, 7.62 and 6.84, respectively. In addition, testing at 0.2 µM in assay [2] gave an inhibition of 93%.

In turn, `CC(Oc1nc(-c2cc(Cl)c3ncccc3c2)c(-c2ccc(F)cc2)nc1N)c1ccccn1` (stereo not shown) [Compound No. 103, 5-(8-chloroquinolin-6-yl)-6-(4-fluorophenyl)-3-(1-(pyridin-2-yl)ethoxy)pyrazin-2-amine] had an inhibition at 0.2 µM in assay [2] of 19%. Further, the pIC50 in assay [4] was 5.85.

On to `C[C@@H](NC(=O)c1nc(-c2cc(Cl)c3[nH]ncc3c2)c(-c2ccc(F)cc2)nc1N)c1ccccn1` [Compound No. 104, (R)-3-amino-6-(7-chloro-1H-indazol-5-yl)-5-(4-fluorophenyl)-N-(1-(pyridin-2-yl)ethyl)pyrazine-2-carboxamide], for which the pIC50 in assay [1] was 9.05; in assay [3] it was 6.93; in assay [4], 7.12. In assay [2], at 0.2 µM the inhibition was 68%.

For `N#Cc1cccc(CNC(=O)c2nc(-c3cc(Cl)c4ncccc4c3)c(-c3ccc(F)cc3)nc2N)n1` [Compound No. 105, 3-amino-6-(8-chloroquinolin-6-yl)-N-((6-cyanopyridin-2-yl)methyl)-5-(4-fluorophenyl)pyrazine-2-carboxamide], the values for the pIC50 in assay [1], in assay [3] and in assay [4] were 8.92, 8.00 and 7.32, respectively. In assay [2], this compound returned an inhibition at 0.2 µM of 94%.

`C[C@@H](NC(=O)c1nc(-c2ccc3ncccc3c2)c(-c2ccn(C)n2)nc1N)c1ccccn1` [Compound No. 110, (R)-3-amino-5-(1-methyl-1H-pyrazol-3-yl)-N-(1-(pyridin-2-yl)ethyl)-6-(quinolin-6-yl)pyrazine-2-carboxamide]: the values for the negative logarithm of the IC50 (pIC50) in assay [1] and in assay [4] were 8.54 and 7.12, respectively. In assay [2], the inhibition at 0.2 µM was 38%.

As to `C[C@H](NC(=O)c1nc(-c2cc(Cl)c3ncccc3c2)c(-c2ccccc2)nc1N)c1cccc(C#N)n1` [Compound No. 122, (S)-3-amino-6-(8-chloroquinolin-6-yl)-N-(1-(6-cyanopyridin-2-yl)ethyl)-5-phenylpyrazine-2-carboxamide], the pIC50 was greater than 9.22 in assay [1] and 7.48 in assay [4]. Also, in assay [2], the inhibition at 0.2 µM was 96%.

As to `C[C@@H](NC(=O)c1nc(-c2ccc3ncccc3c2)c(-c2ccccc2)nc1N)c1ncccn1` [Compound No. 125, (R)-3-amino-5-phenyl-N-(1-(pyrimidin-2-yl)ethyl)-6-(quinolin-6-yl)pyrazine-2-carboxamide], the pIC50 was 8.92 in assay [1] and 7.57 in assay [4].

On to `C[C@H](NC(=O)c1nc(-c2ccc3ncccc3c2)c(-c2ccccc2)nc1N)c1ncccn1` [Compound No. 126, (S)-3-amino-5-phenyl-N-(1-(pyrimidin-2-yl)ethyl)-6-(quinolin-6-yl)pyrazine-2-carboxamide], for which the pIC50 in assay [1] is 8.74; in assay [4], 6.96. Further, the inhibition at 0.2 µM in assay [2] amounted to 41%.

On to `Nc1nc(-c2ccccc2)c(-c2ccc3ncccc3c2)nc1C(=O)NCCC1CCOCC1` [compound 89, 3-amino-5-phenyl-6-(quinolin-6-yl)-N-(2-(tetrahydro-2H-pyran-4-yl)ethyl)pyrazine-2-carboxamide], for which the pIC50 in assay [1] is 7.80; in assay [4], 7.24.

Take `C[C@@H](NC(=O)c1nc(-c2cc(Cl)c3ncccc3c2)c(-c2ccc(F)cc2)nc1N)c1ccccn1` [compound 106, (R)-3-amino-6-(8-chloroquinolin-6-yl)-5-(4-fluorophenyl)-N-(1-(pyridin-2-yl)ethyl)pyrazine-2-carboxamide]: the inhibition at 0.2 µM in assay [2] amounted to 34%. Moreover, the pIC50 in assay [4] was 6.78.

In assay [2], `CCN(CC)CCNC(=O)c1nc(-c2ccc3ncccc3c2)c(-c2ccccc2)nc1N` [compound 107, 3-amino-N-(2-(diethylamino)ethyl)-5-phenyl-6-(quinolin-6-yl)pyrazine-2-carboxamide] displayed an inhibition at 0.2 µM of 49%. Also, the pIC50 in assay [4] is 6.72.
